Test results: US9664676B2, “RNA sequences that induce fluorescence of small molecule fluorophores” (Cornell University, priority 2013, dated 2017)

B1: tBroccoli: Broccoli with tRNA scaffold, SEQ ID NO: 38 (nucleic acid)
chain: GCCCGGATAGCTCAGTCGGTAGAGCAGCGGAGACGGTCGGGTCCAGATATTCGTATCTGTCGAGTAGAGTGTGGGCTCCGCGGGTCCAGGGTTCAAGTCCCTGTTCGGGCGCCA
modifications: chemistry not given here

How the values were obtained:
[1] = In vitro fluorescence activation of DFHBI-1T by 29-1 and truncation mutants; format: biochemical; conditions: excess RNA conditions
Text: In Vitro Characterization of Aptamers: dsDNA from the brightest bacterial cells in a library was PCR amplified from eluted plasmids. Truncation, deletion and point mutation mutants were generated from dsDNAs PCR amplified based on respective ssDNA templates (Protein and Nucleic Acid Facility, Stanford University Medical Center). Primers were designed so the PCR product contained T7 promoter sequence. When indicated, dsDNA or ssDNA also contained tRNA scaffold part. PCR products were then purified with PCR purification columns (Qiagen) and in vitro transcribed utilizing AmpliScribe T7-Flash Transcription Kit (Epicenter). RNA was purified using Bio-Spin columns (Bio-Rad), and quantified using both absorbance values and the Quant-iT RiboGreen RNA Assay Kit (Life Technologies).
All in vitro RNA properties were measured in 40 mM HEPES pH 7.4, 100 mM KCl, 1 mM MgCl2 buffer unless specified separately. All values presented are averaging of at least three independent experiments, error bars are standard deviations.
(§1) To measure the fluorescence of aptamer-fluorophore complexes, an approach that overcomes potential confounding effects of incomplete RNA folding was used. The fluorescence of RNA-fluorophore complexes can be measured in either of two ways: using “excess RNA” or “excess fluorophore” (Ponchon et al., “Recombinant RNA Technology: the tRNA Scaffold,” Nat. Methods 4(7): 571-6 (2007), which is hereby incorporated by reference in its entirety). In an “excess RNA” experiment enough RNA was added to ensure that all the fluorophore (e.g. 1 μM) is bound to the RNA even if a sizeable portion of the RNA is unfolded. As a result, one can be confident that a 1 μM RNA-fluorophore complex is present, and one can therefore calculate the “molar brightness,” the fluorescence of a specific concentration of RNA-fluorophore complex independent of RNA folding. In the case of excess fluorophore experimental conditions were reversed and 1 μM of RNA was used with a vast excess of the fluorophore. In this case, the amount of RNA-fluorophore complex is highly dependent on the amount of RNA that is folded.

E. coli = assay: Fluorescence measurements of E. coli (colonies, suspensions) expressing aptamers with DFHBI-1T; format: cell-based, Escherichia coli
Procedure: Fluorescence Measurements of E. coli: Fluorescence measurements of E. coli were done in two general ways. To assess fluorescence brightness of bacterial colonies on a plate Acella or LMG194 strains cells were transferred to a new LB/agar dish with respective antibiotic and allowed to grow overnight at 37° C. Typically four to six colonies for the same aptamer were grown on the same plate to provide statistical data. These plates already contained 40 μM DFHBI-1T (or DFHBI) and 0.2% arabinose (in case of LMG194 strain). When Acella strain was used, 1 mM IPTG was added the next morning and incubation was continued for four to six hours more at 37° C. Bacterial colonies were then imaged under ChemiDoc MP imager as described above and images were processed in ImageJ program.
To measure fluorescence of bacterial cell suspensions BL21 Star (DE3) (Life Technologies) strain and pET28c-based expression plasmids were used. This combination provided the strongest signal. Fresh colony was inoculated into LB media with kanamycin and allowed to grow overnight at 37° C. to OD600 0.4. The cells were then induced with addition of 1 mM IPTG for 2-4 h at 37° C. After induction, cells were normalized for cell density and incubated with 400 μM DFHBI-1T. Cells were then measured for total fluorescence using a Genios Pro plate reader at 465 nm excitation and 535 nm emission. All values were normalized for slightly different excitation and emission spectra of Spinach2 and Broccoli.

[2] = Folding measurements with DFHBI-1T; format: physicochemical; conditions: for percent folded: in vitro folding assay
Procedure: Briefly, fluorescence intensity of two solutions were compared: the one having excess of the dye and limiting amount of RNA and the other with excess of RNA and limiting amount of the dye. 1 μM of 1T (or RNA) and 20 μM of RNA (or 1T) was used. Signal from the first condition (limiting RNA) was divided by the signal from the second condition (limiting dye) to determine the fraction folded. To measure folding in a context of different flanking sequences RNA was generated from separate dsDNA fragments. These fragments were PCR amplified to have β-actin, 5S rRNA and 7SK RNA sequences on either or both sides of Broccoli. The folding assay then proceeded as described above.
as §1

HEK293T cells = assay: Flow cytometry of HEK293T cells expressing 5S rRNA-aptamer fusions with DFHBI-1T; format: cell-based; conditions: flow cytometry
Procedure: FIG. 24 illustrates the quantification of the flow cytometry analysis of aptamers expression in mammalian cells. To compare specific aptamers' brightness in mammalian cells, HEK293T cells were transfected with two plasmids: one expressing aptamer (with or without tRNA) fused to 5S rRNA and another expressing mCherry fluorescent protein. Cells were then treated with 40 μM DFHBI-1T and analyzed on FACSAria III instrument in two channels: green (ex=488 nm; em=525±50 nm) and red (ex=561 nm and em=610±20). For quantification, mean fluorescent signal of the non-negative population was calculated and then mean fluorescent signal of the negative population was subtracted from it to assess specific, not background fluorescent signal. Finally, this number was multiplied by the percentage of the non-negative population to provide the total fluorescent signal of the non-negative population. These numbers are plotted on the bar graph above. Where indicated, cells were also pre-treated with 5 mM MgSO4. Error bar indicates robust SD calculated by FlowJo program, used for data analysis.
Imaging 5S-tBroccoli and 5S-t-tdBroccoli: Plasmids were transfected into HEK293T cell using FuGENE HD reagent (Promega) following manufacture's protocol. Cell imaging was carried out as previously described for 5S-Spinach (Paige et al., “RNA Mimics of Green Fluorescent Protein,” Science 333(6042): 642-6 (2011), which is hereby incorporated by reference in its entirety) with DFHBI-1T instead of DFHBI. […]
Flow cytometry was used to quantify average brightness of tRNA. Transfected cells were analyzed in two channels: green (ex=488 nm; em=525±50 nm) and red (ex=561 nm; em=610±20). […] As evidenced from FIG. 14A, 5S-tBroccoli and 5S-tdBroccoli are clearly detectable in the green fluorescence channel and this specific signal appears only upon cells treatment with DFHBI-1T (FIG. 23).

[3] = Magnesium dependence of aptamer fluorescence; format: physicochemical; conditions: MgCl2 titration
Procedure: To measure magnesium dependence 1 μM RNA was incubated with 10 μM 1T in 40 mM HEPES pH 7.4, 100 mM KCl buffer with different concentrations of MgCl2 and then fluorescence emission was measured on a plate reader.

| Molecule | ability to induce DFHBI-1T fluorescence [1] | ability to induce DFHBI-1T fluorescence ([1]; listed as T2) | colony fluorescence compared to 29-1 (E. coli; E. coli colonies on LB-DFHBI-1T agar, tRNA scaffold) | percent folded [2] | detection in HEK293T cells of 5S fusions without tRNA scaffold (HEK293T cells) | fluorescence of aptamer-expressing E. coli cells (E. coli; tRNA fusions, suspension/plate reader, DFHBI-1T) | folding relative to 29-1 ([2]; in vitro) | magnesium concentration giving maximal fluorescence [3] | increase of E. coli fluorescence with 20 mM MgCl2 (E. coli; LB media with versus without 20 mM MgCl2, after 1 hr) |
| --- | --- | --- | --- | --- | --- | --- | --- | --- | --- |
| 29-1-T2: 56-nucleotide truncation of 29-1, SEQ ID NO: 4 (GAGACGGUCGGGUCCAGCACAAAAAUGUUGCUGUUGAGUAGAGUGUGGGCUC; listed as RNA, chemistry not given here) | retained the ability to induce DFHBI-1T fluorescence | able to induce fluorescence of DFHBI-1T | significantly less bright than colonies expressing 29-1 | 45% | – | – | – | – | – |
| Broccoli: 49 nt RNA aptamer, SEQ ID NO: 75; 29-1-3-1 designated Broccoli (GAGACGGUCGGGUCCAGAUAUUCGUAUCUGUCGAGUAGAGUGUGGGCUC; further chemistry not given here) | – | – | – | – | can be detected in cells | more than twice as fluorescent as Spinach2-expressing cells | 80% | ~300 µM | – |
| B1 | – | – | – | ~60% | – | – | – | – | 36% |
